Results as given in article PMC10978029 (Virulence, 2024).

Legend:
[1] = biological target: T1, STM0435 (Salmonella enterica, UniProt Q8ZRC9); assay: SPR; type: binding
T1 sequence (Q8ZRC9 1-163): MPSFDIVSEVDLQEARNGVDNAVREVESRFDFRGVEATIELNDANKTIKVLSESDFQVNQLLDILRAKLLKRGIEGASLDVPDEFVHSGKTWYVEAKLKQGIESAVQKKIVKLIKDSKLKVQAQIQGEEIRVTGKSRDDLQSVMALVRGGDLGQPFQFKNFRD

[2] = biological target: STM0435 (Salmonella enterica, UniProt Q8ZRC9, R33H); assay: biochemical
[3] = biological target: STM0435 (Salmonella enterica, UniProt Q8ZRC9, D138H/R137H); assay: biochemical
[4] = biological target: STM0435 (Salmonella enterica, UniProt Q8ZRC9, D138H/R137H/R33H); assay: biochemical

Question: Which Kd [1] does the source give for `Nc1nc2c(ncn2[C@@H]2O[C@@H]3CO[P@](=O)(O)O[C@H]4[C@@H](O)[C@H](n5cnc6c(=O)[nH]c(N)nc65)O[C@@H]4CO[P@](=O)(O)O[C@H]3[C@H]2O)c(=O)[nH]1` [c-di-GMP] here?
Answer: 8.38 µM

Question: And the Kd [2]?
Answer: 15.2 µM

Question: And the Kd [3]?
Answer: 25.3 µM

Question: What about the Kd [4] of the same compound?
Answer: 33.2 µM
